According to ChEMBL document CHEMBL3862042 (J Med Chem, 2017):

Tests used:
[1] = molecular target: T1, Phosphatidylinositol 4-kinase type 2-alpha (Homo sapiens, UniProt Q9BTU6); experiment: Inhibition of PI4K2A (unknown origin) assessed as remaining enzyme activity by ADP-Glo kinase assay relative to untreated control; parameters: concentration or dose not given beside the values
[2] = Cytotoxicity against human HeLa cells incubated for 3 days by MTT assay; type: toxicity, cell-based
Human rhinovirus 1A = experiment: microbe, parasite or virus in culture; conditions: HeLa, 72 h
Coxsackievirus B3 = experiment: microbe, parasite or virus in culture; conditions: Enterovirus B, Nancy, HeLa, 4 h
Hepatitis C virus [3] = experiment: microbe, parasite or virus in culture; conditions: genotype 1b, Huh-7, 72 h
Hepatitis C virus [4] = experiment: microbe, parasite or virus in culture; conditions: subtype 2a JFH1, Huh-7, 72 h
[5] = molecular target: T2, Phosphatidylinositol 4-kinase beta (Homo sapiens, UniProt Q9UBF8); experiment: Inhibition of PI4KB (unknown origin) by ADP-Glo kinase assay
[6] = molecular target: Phosphatidylinositol 4-kinase alpha (Homo sapiens, UniProt P42356); experiment: Inhibition of PI4KA (unknown origin) by ADP-Glo kinase assay
Phosphatidylinositol 4-kinase alpha, sequence (P42356 whole entry): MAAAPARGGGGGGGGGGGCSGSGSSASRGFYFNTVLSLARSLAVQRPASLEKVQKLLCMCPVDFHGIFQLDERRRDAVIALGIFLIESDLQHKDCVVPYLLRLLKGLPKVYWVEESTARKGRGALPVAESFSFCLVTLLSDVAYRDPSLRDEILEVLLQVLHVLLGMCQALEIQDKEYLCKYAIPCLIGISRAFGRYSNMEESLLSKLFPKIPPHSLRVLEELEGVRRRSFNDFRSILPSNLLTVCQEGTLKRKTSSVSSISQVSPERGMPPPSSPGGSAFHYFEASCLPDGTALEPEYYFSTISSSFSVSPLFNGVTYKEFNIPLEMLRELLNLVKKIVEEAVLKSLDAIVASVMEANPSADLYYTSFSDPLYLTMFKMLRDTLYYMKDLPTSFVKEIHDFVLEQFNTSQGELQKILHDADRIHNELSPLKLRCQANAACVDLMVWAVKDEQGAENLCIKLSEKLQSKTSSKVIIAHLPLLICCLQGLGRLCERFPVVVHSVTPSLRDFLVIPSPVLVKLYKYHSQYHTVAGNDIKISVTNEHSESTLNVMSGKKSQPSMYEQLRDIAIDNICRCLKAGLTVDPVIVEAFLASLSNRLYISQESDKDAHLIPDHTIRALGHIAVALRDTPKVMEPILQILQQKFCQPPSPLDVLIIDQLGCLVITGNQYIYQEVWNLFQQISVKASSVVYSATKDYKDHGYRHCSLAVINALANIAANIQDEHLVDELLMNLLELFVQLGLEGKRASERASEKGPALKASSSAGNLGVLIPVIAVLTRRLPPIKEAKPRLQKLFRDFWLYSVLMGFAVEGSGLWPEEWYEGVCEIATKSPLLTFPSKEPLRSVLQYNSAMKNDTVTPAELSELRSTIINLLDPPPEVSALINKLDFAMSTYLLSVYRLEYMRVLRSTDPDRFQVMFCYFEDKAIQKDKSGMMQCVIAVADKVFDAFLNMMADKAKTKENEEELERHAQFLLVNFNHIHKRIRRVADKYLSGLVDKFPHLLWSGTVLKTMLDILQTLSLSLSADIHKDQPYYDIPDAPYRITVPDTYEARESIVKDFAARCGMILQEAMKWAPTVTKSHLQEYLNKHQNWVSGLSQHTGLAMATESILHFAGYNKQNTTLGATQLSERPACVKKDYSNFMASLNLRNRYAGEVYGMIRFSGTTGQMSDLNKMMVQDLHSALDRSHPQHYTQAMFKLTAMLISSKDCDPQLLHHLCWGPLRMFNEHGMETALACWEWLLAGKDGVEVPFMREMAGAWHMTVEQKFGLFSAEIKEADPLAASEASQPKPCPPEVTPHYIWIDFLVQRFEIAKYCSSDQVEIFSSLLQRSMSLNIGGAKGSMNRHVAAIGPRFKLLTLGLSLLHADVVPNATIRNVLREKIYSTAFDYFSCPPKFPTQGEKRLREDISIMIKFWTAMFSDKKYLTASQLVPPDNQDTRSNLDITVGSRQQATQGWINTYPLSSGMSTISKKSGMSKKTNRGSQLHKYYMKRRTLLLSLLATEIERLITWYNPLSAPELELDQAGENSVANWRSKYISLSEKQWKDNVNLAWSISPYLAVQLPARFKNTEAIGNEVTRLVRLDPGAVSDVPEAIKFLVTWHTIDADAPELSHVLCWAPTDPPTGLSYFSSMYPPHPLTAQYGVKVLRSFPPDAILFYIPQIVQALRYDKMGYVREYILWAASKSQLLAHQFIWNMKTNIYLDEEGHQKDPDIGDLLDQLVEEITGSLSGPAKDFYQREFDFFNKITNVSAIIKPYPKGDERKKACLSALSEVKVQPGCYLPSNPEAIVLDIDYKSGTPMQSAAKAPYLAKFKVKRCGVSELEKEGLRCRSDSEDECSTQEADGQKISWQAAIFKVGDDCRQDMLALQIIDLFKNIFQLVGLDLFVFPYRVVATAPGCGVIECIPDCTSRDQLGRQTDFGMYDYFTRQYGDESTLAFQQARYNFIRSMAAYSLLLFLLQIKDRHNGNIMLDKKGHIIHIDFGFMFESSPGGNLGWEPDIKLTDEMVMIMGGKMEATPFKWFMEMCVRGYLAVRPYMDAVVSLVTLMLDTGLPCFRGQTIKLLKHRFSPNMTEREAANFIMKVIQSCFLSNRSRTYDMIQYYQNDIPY

[7] = molecular target: T1, Phosphatidylinositol 4-kinase type 2-alpha; experiment: Inhibition of PI4K2A (unknown origin) by ADP-Glo kinase assay
[8] = molecular target: T2, Phosphatidylinositol 4-kinase beta; experiment: Inhibition of PI4KB (unknown origin) at 1 uM by ADP-Glo kinase assay
Target sequence in this assay (Q9UBF8 2-816 limits assumed): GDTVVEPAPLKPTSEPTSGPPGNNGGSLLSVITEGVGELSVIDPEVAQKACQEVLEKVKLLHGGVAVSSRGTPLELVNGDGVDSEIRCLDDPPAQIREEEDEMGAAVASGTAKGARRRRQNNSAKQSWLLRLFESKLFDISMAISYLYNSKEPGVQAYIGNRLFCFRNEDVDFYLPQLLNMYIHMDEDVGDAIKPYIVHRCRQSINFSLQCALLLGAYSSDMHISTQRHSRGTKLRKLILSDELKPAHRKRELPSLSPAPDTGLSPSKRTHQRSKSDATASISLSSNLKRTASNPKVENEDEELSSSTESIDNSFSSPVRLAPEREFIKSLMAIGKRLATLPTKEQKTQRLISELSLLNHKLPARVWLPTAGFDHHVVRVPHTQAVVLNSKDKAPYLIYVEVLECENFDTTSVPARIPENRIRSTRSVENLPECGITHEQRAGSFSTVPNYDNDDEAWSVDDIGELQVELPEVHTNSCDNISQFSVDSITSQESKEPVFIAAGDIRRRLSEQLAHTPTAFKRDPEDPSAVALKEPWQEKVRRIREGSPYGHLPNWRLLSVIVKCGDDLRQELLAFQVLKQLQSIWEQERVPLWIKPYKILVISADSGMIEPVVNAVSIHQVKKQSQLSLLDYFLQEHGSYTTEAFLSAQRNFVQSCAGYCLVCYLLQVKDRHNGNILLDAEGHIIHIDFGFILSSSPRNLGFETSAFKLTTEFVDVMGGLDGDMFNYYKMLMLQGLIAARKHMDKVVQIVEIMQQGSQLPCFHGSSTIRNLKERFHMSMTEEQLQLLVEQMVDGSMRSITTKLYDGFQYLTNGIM

[9] = molecular target: Phosphatidylinositol 4,5-bisphosphate 3-kinase catalytic subunit alpha isoform (Homo sapiens, UniProt P42336); experiment: Inhibition of PI3Kalpha (unknown origin) by ADP-Glo kinase assay
[10] = molecular target: Phosphatidylinositol 4,5-bisphosphate 3-kinase catalytic subunit beta isoform (Homo sapiens, UniProt P42338); experiment: Inhibition of PI3Kbeta (unknown origin) by ADP-Glo kinase assay
Phosphatidylinositol 4,5-bisphosphate 3-kinase catalytic subunit beta isoform, sequence (P42338 whole entry, canonical isoform): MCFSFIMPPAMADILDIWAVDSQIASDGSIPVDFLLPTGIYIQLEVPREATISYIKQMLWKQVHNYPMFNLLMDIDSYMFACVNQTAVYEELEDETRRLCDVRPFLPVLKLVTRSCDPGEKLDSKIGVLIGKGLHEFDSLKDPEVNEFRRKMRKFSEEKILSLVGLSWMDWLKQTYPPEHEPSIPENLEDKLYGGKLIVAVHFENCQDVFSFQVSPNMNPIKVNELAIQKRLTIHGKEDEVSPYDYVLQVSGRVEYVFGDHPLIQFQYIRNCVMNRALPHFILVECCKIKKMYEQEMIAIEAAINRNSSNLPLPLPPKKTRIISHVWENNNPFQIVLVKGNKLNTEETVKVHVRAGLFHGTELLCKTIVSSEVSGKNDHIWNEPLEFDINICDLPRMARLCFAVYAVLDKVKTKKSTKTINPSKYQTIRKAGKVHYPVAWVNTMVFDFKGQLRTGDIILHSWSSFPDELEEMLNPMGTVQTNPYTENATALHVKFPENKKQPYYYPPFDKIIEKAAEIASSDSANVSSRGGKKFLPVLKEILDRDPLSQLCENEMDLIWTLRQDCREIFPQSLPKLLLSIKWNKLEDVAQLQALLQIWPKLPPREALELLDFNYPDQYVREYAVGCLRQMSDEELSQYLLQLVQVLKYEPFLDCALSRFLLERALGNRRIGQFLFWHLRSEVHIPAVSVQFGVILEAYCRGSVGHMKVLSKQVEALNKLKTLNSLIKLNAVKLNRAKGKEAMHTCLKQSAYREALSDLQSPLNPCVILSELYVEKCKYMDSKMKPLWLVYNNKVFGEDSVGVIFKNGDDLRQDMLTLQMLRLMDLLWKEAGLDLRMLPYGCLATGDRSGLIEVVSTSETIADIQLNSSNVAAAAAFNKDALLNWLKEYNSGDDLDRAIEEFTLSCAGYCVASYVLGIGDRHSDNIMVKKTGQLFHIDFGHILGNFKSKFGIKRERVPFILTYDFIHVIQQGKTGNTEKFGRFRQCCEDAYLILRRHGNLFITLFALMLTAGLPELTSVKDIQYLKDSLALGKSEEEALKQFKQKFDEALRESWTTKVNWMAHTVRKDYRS

[11] = molecular target: T3, Phosphatidylinositol 4,5-bisphosphate 3-kinase catalytic subunit delta isoform (Homo sapiens, UniProt O00329); experiment: Inhibition of PI3Kdelta (unknown origin) by ADP-Glo kinase assay
T3 sequence (O00329 whole entry): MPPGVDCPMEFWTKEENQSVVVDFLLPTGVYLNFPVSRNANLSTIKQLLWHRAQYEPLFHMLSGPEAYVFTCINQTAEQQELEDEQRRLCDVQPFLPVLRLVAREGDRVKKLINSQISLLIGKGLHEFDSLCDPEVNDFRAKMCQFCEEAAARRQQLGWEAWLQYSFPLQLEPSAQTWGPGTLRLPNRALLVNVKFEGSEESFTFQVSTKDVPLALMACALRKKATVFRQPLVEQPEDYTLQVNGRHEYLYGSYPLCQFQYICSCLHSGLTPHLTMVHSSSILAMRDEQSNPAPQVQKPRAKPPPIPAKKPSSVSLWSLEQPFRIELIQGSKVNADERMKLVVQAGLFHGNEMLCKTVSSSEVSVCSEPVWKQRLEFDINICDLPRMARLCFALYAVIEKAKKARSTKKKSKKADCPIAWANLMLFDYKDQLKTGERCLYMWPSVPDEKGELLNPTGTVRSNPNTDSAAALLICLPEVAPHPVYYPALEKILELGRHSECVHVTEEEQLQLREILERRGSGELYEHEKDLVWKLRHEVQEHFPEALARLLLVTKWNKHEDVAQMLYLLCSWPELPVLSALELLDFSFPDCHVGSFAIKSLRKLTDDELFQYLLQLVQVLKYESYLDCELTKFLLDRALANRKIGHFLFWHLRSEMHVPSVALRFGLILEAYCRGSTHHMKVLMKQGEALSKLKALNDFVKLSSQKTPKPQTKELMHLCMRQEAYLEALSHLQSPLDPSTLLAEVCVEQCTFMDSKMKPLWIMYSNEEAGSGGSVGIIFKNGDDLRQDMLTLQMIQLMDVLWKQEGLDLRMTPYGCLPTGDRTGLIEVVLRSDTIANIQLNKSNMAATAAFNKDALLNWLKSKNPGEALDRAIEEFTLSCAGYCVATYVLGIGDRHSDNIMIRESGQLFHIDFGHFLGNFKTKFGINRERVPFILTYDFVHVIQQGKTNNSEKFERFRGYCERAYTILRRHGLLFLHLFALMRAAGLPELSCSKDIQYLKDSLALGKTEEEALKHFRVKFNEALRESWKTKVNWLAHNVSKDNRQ

[12] = molecular target: Phosphatidylinositol 4,5-bisphosphate 3-kinase catalytic subunit gamma isoform (Homo sapiens, UniProt P48736); experiment: Inhibition of PI3Kgamma (unknown origin) by ADP-Glo kinase assay

T1 sequence (Q9BTU6 whole entry): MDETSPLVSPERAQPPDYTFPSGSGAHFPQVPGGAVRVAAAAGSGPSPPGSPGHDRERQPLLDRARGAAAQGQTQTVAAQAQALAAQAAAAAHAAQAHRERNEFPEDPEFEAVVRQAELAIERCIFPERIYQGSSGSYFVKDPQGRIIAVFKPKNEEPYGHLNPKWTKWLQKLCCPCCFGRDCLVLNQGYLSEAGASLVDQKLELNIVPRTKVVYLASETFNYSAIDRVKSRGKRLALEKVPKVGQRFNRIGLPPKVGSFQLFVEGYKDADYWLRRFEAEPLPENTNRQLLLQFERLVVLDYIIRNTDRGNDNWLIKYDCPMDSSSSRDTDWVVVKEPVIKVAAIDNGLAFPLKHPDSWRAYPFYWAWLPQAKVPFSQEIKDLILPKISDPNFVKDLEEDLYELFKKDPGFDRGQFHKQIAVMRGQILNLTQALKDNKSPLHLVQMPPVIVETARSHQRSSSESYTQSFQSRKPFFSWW

| SMILES | Activity [1] [%] | CC50 at 72 h [2] [µM] | EC50 (Human rhinovirus 1A) [µM] | EC50 (Coxsackievirus B3) [µM] | EC50 (Hepatitis C virus [3]) [µM] | EC50 (Hepatitis C virus [4]) [µM] | further results |
| --- | --- | --- | --- | --- | --- | --- | --- |
| COCCNS(=O)(=O)c1cc(-c2c(C)nc3c(NCCNC(C)=O)cc(Cl)nn23)ccc1OC | 107 |  |  |  |  |  |  |
| COc1ccc(-c2c(C)nc3c(NCCNC(C)=O)cc(Cl)nn23)cc1S(=O)(=O)NCCO | 112 |  |  |  |  |  |  |
| CCC(CO)NS(=O)(=O)c1cc(-c2c(C)nc3c(NCCNC(C)=O)cc(Cl)nn23)ccc1OC (configuration not stated) | 77 | > 50 | 6.76 | 1.66 | 3.42 | > 44.4 |  |
| COc1ccc(-c2c(C)nc3c(NCCNC(C)=O)cc(Cl)nn23)cc1S(=O)(=O)N1CCCCC1 | 60 |  |  |  |  |  |  |
| COc1ccc(-c2c(C)nc3c(NCCNC(C)=O)cc(Cl)nn23)cc1S(=O)(=O)n1cccn1 | 83 |  |  |  |  |  |  |
| COc1ccc(-c2c(C)nc3c(NCCNC(C)=O)cc(Cl)nn23)cc1S(=O)(=O)N(C)C | 104 | 84.2 | 0.716 | 1.32 | 0.594 | > 44.4 |  |
| COc1ccc(-c2c(C)nc3c(NCCNC(C)=O)cc(Cl)nn23)cc1S(=O)(=O)N1CCC(CO)CC1 | 85 | 131 | 5.42 | 5 | 1.83 | > 44.4 |  |
| CC(=O)NCCNc1cc(Cl)nn2c(-c3cccc(S(=O)(=O)N(C)C)c3)c(C)nc12 |  |  |  |  |  |  | IC50 [5]: 0.054 µM; IC50 [6]: > 100 µM |
| CCc1cc(CNc2cc(Cl)nn3c(-c4ccc(OC)cc4)c(C)nc23)ccn1 | 101 |  |  |  |  |  |  |
| CCc1cc(CNc2cc(Cl)nn3c(-c4ccc(OC)c(S(=O)(=O)N5CCOCC5)c4)c(C)nc23)ccn1 | 97 | 25.7 | < 0.01 | 0.083 | 1.02 | 26 |  |
| CCc1cc(CNc2cc(Cl)nn3c(-c4ccc(OC)c(S(=O)(=O)NC5CC5)c4)c(C)nc23)ccn1 | 114 |  |  |  |  |  |  |
| CNCCNS(=O)(=O)c1cc(-c2c(C)nc3c(NCCNC(C)=O)cc(Cl)nn23)ccc1OC | 73 |  |  |  |  |  |  |
| CCc1cc(CNc2cc(Cl)nn3c(-c4ccc(OC)c(S(=O)(=O)N(C)C)c4)c(C)nc23)ccn1 | 106 |  |  |  |  |  |  |
| CCc1cc(CNc2cc(Cl)nn3c(-c4ccc(OC)c(S(=O)(=O)N5CCCCC5)c4)c(C)nc23)ccn1 | 99 |  |  |  |  |  |  |
| CCc1cc(CNc2cc(Cl)nn3c(-c4ccc(OC)c(S(=O)(=O)NCCN(C)C)c4)c(C)nc23)ccn1 | 100 | 5.56 | < 0.01 | 0.151 | 0.35 | 8.51 |  |
| CCc1cc(CNc2cc(Cl)nn3c(-c4ccc(OC)c(S(=O)(=O)NCCO)c4)c(C)nc23)ccn1 | 106 | 18.3 | 0.075 | 0.058 | 0.029 | 14.4 | IC50 [7]: > 10 µM; IC50 [6]: 13.4 µM; inhibition [8]: 50%; IC50 [9]: < 10 µM; IC50 [10]: < 10 µM; IC50 [11]: < 10 µM; IC50 [12]: < 10 µM |
| COc1ccc(-c2c(C)nc3c(NCCNC(C)=O)cc(Cl)nn23)cc1S(=O)(=O)NCCN(C)C | 105 |  |  |  |  |  |  |
| CCc1cc(CNc2cc(Cl)nn3c(-c4ccc(OC)c(S(=O)(=O)N5CCC(O)CC5)c4)c(C)nc23)ccn1 | 109 | 8.4 | < 0.01 | 0.017 | 0.02 | 20.4 |  |
| COc1ccc(-c2c(C)nc3c(NCCNC(C)=O)cc(Cl)nn23)cc1S(=O)(=O)N1CCOCC1 | 88 | 89.2 | 0.655 | 0.038 | 1.03 | > 44.4 |  |
| CCc1cc(CNc2cc(Cl)nn3c(-c4ccc(OC)c(S(=O)(=O)NCCOC)c4)c(C)nc23)ccn1 | 104 | 9.14 | < 0.01 | < 0.02 | 0.416 | 27.9 |  |
| CCc1cc(CNc2cc(Cl)nn3c(-c4ccc(OC)c(S(=O)(=O)NC(CC)CO)c4)c(C)nc23)ccn1 (configuration not stated) | 104 | 17.9 | < 0.01 | 0.476 | < 0.02 | 9.44 |  |
| C=CCNS(=O)(=O)c1cc(-c2c(C)nc3c(NCc4ccnc(CC)c4)cc(Cl)nn23)ccc1OC | 105 | 6.85 | < 0.01 | 0.012 | 0.667 | 20.1 |  |
| C=CCNS(=O)(=O)c1cc(-c2c(C)nc3c(NCCNC(C)=O)cc(Cl)nn23)ccc1OC | 93 | 445 | 0.99 | 5.31 | 2.68 | 35.9 |  |
| CCc1cc(CNc2cc(Cl)nn3c(-c4ccc(OC)c(S(=O)(=O)N5CCC(CO)CC5)c4)c(C)nc23)ccn1 | 115 |  |  |  |  |  |  |
| COc1ccc(-c2c(C)nc3c(NCCNC(C)=O)cc(Cl)nn23)cc1S(=O)(=O)N1CCC(O)CC1 | 88 |  |  |  |  |  |  |
| CCc1cc(CNc2cc(Cl)nn3c(-c4ccc(OC)c(S(=O)(=O)NC5CCC(N)CC5)c4)c(C)nc23)ccn1 (configuration not stated) | 101 | 5.76 | 0.069 | 0.056 | 9.2 | 26.5 |  |
| COc1ccc(-c2c(C)nc3c(NCCNC(C)=O)cc(Cl)nn23)cc1S(=O)(=O)NC1CC1 | 108 |  |  |  |  |  |  |
| CCc1cc(CNc2cc(Cl)nn3c(-c4cccc(S(=O)(=O)N(C)C)c4)c(C)nc23)ccn1 |  | 15.4 | 0.062 | 1.1 | 0.393 | 8.69 |  |
| CCc1cc(CNc2cc(Cl)nn3c(-c4ccc(OC)c(S(=O)(=O)n5cccn5)c4)c(C)nc23)ccn1 | 112 | 61.9 | < 0.01 | 0.138 | 0.954 | > 44.4 |  |
| COc1ccc(-c2c(C)nc3c(NCCNC(C)=O)cc(Cl)nn23)cc1S(=O)(=O)NC1CCC(N)CC1 (configuration not stated) | 102 |  |  |  |  |  |  |
